Patent publication US8304391B2 (Affymax, Inc., priority 2003, dated 2012)
Bridges are numbered along the chain shown (N, C = ends). Roman numbers before positions name the chains, in order. Where no end group is shown, it is not given here. [ ]: non-standard residue; d: D form. The star is where a group is joined. ξ: configuration not given here. 1Nal = N[C@@H](Cc1cccc2ccccc12)C(=O)O; NH(CH2CH2O)2CH2CH2NH2 = NCCOCCOCCN*; hSer = N[C@@H](CCO)C(=O)O; ξK = NCCCCC(N)C(=O)O; Ahx = NCCCCCC(=O)O; Sar = CNCC(=O)O

What was measured:
[1] = target: chimeric receptor comprising the extra-cellular portion of the human EPO receptor to the intra-cellular portion of the human GCSF receptor; assay: Reporter assay (Baf3/EpoR/GCSFR fos/lux luciferase); format: cell-based; conditions: peptide monomers; Baf3/EpoR/GCSFR fos/lux cells, 4 h
Procedure: One assay is based upon a murine pre-B-cell line expressing human EPO-R and further transfected with a fos promoter-driven luciferase reporter gene construct. Upon exposure to EPO or another EPO-R agonist, such cells respond by synthesizing luciferase. Luciferase causes the emission of light upon addition of its substrate luciferin. Thus, the level of EPO-R activation in such cells may be quantitated via measurement of luciferase activity. The activity of a test peptide is measured by adding serial dilutions of the test peptide to the cells, which are then incubated for 4 hours. After incubation, luciferin substrate is added to the cells, and light emission is measured. The concentration of test peptide that results in a half-maximal emission of light is recorded as the EC50.
This assay is based upon a on a murine pre-B-cell line derived reporter cell, Baf3/EpoR/GCSFR fos/lux. […] Thus, the level of EPO-R activation in such cells may be quantitated via measurement of luciferase activity.
The Baf3/EpoR/GCSFR fos/lux cells are cultured in DMEM/F12 medium (Gibco) supplemented with 10% fetal bovine serum (FBS; Hyclone), 10% WEHI-3 supernatant (the supernatant from a culture of WEHI-3 cells, ATCC # TIB-68), and penicillin/streptomycin. […] Following a 5-minute incubation, light emission is measured on a Packard Topcount Luminometer (Packard Instrument Co., Downers Grove, Ill.). […]

[2] = system: human, bone marrow derived CD34+ cells; format: cell-based
Text: EPO-R signaling stimulates the differentiation of bone marrow stem cells into proliferating red blood cell precursors. This assay measures the ability of test peptides to stimulate the proliferation and differentiation of red blood cell precursors from primary human bone marrow pluripotent stem cells.
For this assay, serial dilutions of test peptide are made in IMDM medium (Gibco) supplemented with 10% FBS (Hyclone). […] The methylcellulose and peptide mixture is then vortexed thoroughly. Aliquots (100,000 cells/mL) of human, bone marrow derived CD34+ cells (Poietics/Cambrex) are thawed. The thawed cells are gently added to 0.1 mL of 1 mg/ml DNAse (Stem Cells) in a 50 mL tube. Next, 40-50 mL IMDM medium is added gently to cells: the medium is added drop by drop along the side of the 50 mL tube for the first 10 mL, and then the remaining volume of medium is slowly dispensed along the side of the tube. The cells are then spun at 900 rpm for 20 min, and the media removed carefully by gentle aspiration. The cells are resuspended in 1 ml of IMDM medium and the cell density per mL is counted on hemacytometer slide (10 μL aliquot of cell suspension on slide, and cell density is the average count×10,000 cells/mil). The cells are then diluted in IMDM medium to a cell density of 15,000 cells/mL. A 100 μL of diluted cells is then added to each 1.5 mL methyl cellulose plus peptide sample (final cell concentration in assay media is 1000 cells/mL), and the mixture is vortexed. Allow the bubbles in the mixture to disappear, and then aspirate 1 mL using blunt-end needle. Add 0.25 mL aspirated mixture from each sample into each of 4 wells of a 24-well plate (Falcon brand). Incubate the plated mixtures at 37° C. under 5% CO2 in a humid incubator for 14 days. Score for the presence of erythroid colonies using a phase microscope (5×-10× objective, final magnification of 100×).

human EPO-R = target: T1, human EPO-R (Homo sapiens, UniProt P19235); assay: Proliferation assay (BaF3/Gal4/Elk/EPOR cells, MTT); format: cell-based; conditions: 48 h
T1 construct: expressed in transfected cells; host or cells: murine pre-B-cell line Baf3 (BaF3/Gal4/Elk/EPOR)
T1 sequence (P19235 25-508): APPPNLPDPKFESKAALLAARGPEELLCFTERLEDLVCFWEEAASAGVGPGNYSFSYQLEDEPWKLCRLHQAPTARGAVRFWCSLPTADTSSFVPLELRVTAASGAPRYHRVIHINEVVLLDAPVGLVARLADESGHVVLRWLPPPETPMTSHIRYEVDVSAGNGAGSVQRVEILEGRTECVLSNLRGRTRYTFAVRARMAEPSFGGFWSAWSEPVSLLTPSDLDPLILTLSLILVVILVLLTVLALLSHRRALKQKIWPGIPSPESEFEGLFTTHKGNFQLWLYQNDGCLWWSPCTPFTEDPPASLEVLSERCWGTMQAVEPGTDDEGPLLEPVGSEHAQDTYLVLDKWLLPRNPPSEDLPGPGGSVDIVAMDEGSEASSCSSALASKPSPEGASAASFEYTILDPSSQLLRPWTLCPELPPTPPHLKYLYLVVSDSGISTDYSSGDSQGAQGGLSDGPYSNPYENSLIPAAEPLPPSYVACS
Procedure: This assay is based upon a murine pre-B-cell line, Baf3, transfected to express human EPO-R. Proliferation of the resulting cell line, BaF3/Gal4/Elk/EPOR, is dependent on EPO-R activation. The degree of cell proliferation is quantitated using MTT, where the signal in the MTT assay is proportional to the number of viable cells.
The BaF3/Ga14/Elk/EPOR cells are cultured in spinner flasks in DMEM/F12 medium (Gibco) supplemented with 10% FBS (Hyclone) and 2% WEHI-3 supernatant (ATCC # TIB-68). Cultured cells are starved overnight, in a spinner flask at a cell density of 1×10^6 cells/ml, in DMEM/F12 medium supplemented with 10% FBS and 0.1% WEHI-3 supernatant. The starved cells are then washed twice with Dulbecco's PBS (Gibco), and resuspended to a density of 1×10^6 cells/ml in DMEM/F12 supplemented with 10% FBS (no WEHI-3 supernatant). 50 μL , aliquots (˜50,000 cells) of the cell suspension are then plated, in triplicate, in 96 well assay plates. […] The plated cells are then incubated for 48 h at 37° C. Next, 10 μL of MTT (Roche Diagnostics) is added to each culture dish well, and then allowed to incubate for 4 h. The reaction is then stopped by adding 10% SDS+0.01N HCl. The plates are then incubated overnight at 37° C. Absorbance of each well at a wavelength of 595 nm is then measured by spectrophotometry. Plots of the absorbance readings versus test peptide concentration are constructed and the EC50 calculated using Graph Pad software. The concentration of test peptide that results in a half-maximal absorbance is recorded as the EC50 [See Table 3: Proliferation EC50].

recombinant EPO-R = target: T2, recombinant EPO-R (Homo sapiens, UniProt P19235); assay: Competitive binding assay (AQ, bead proximity, tracer AF33068); conditions: tracer AF33068 30 nM, 18 hours
T2 construct: made in house; host or cells: Chinese Hamster Ovary cells
T2 sequence (P19235 25-250 limits assumed): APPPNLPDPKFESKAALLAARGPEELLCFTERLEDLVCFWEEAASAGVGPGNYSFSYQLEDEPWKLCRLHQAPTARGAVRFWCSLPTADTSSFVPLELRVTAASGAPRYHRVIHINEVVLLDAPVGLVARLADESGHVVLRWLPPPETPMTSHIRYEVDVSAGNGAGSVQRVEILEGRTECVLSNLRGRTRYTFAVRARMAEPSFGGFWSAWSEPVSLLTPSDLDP
Text: Competitive binding calculations are made using an assay in which a light signal is generated as a function of the proximity of two beads: a streptavidin donor bead bearing a biotinylated EPO-R-binding peptide tracer and an acceptor bead to which is bound EPO-R. Light is generated by non-radiative energy transfer, during which a singlet oxygen is released from a first bead upon illumination, and contact with the released singlet oxygen causes the second bead to emit light. These bead sets are commercially available (Packard). Bead proximity is generated by the binding of the EPO-R-binding peptide tracer to the EPO-R. A test peptide that competes with the EPO-R-binding peptide tracer for binding to EPO-R will prevent this binding, causing a decrease in light emission.
In more detail the method is as follows: Add 4 μL of serial dilutions of the test EPO-R agonist peptide, or positive or negative controls, to wells of a 384 well plate. Thereafter, add 2 μL/well of receptor/bead cocktail. […]
Centrifuge 1 min to mix. […] After 18 hours read light emission using an AlphaQuest reader (Packard). […]

Substance | EC50 [1] | EC90 [2] | EC50 (human EPO-R) | IC50 (recombinant EPO-R)
GGLYACHMGPMT(1-nal)VCQPLRG (GGLYACHMGPMT[1Nal]VCQPLRG; cysteine pairing not given here) [AF31748] | 40 nM |  |  | 
GGLYACHMGPMTVCQPLRG [AF31552] | 100 nM |  |  | 
I: Ac-GGLYACHMGPITWVCQPLRGK[Ahx][Ahx] / II: Ac-GGLYACHMGPITWVCQPLRG (disulfide I:6-I:15, II:6-II:15; amide I:21-II:C; N-terminus assumed) [AF34753] |  | 1.2 nM |  | 
I: Ac-GGLYACHMGPIT[1Nal]VCQPLR[Sar][ξK]-{NH(CH2CH2O)2CH2CH2NH2} / II: Ac-GGLYACHMGPIT[1Nal]VCQPLR[Sar] (disulfide I:6-I:15, II:6-II:15; amide I:21-II:C) [AF35525] |  | 3 nM | 0.057 nM | 
I: Ac-GGLYACH[hSer](Me)GPIT[1Nal]VCQPLRGK[Ahx][Ahx] / II: Ac-GGLYACH[hSer](Me)GPIT[1Nal]VCQPLRG (disulfide I:6-I:15, II:6-II:15; amide I:21-II:C; N-terminus assumed) [AF35179] |  | 3.7 nM |  | 
I: Ac-GGLYACH[hSer](Me)GPIT[1Nal]VCQPLR[Sar][ξK]-{NH(CH2CH2O)2CH2CH2NH2} / II: Ac-GGLYACH[hSer](Me)GPIT[1Nal]VCQPLR[Sar] (disulfide I:6-I:15, II:6-II:15; amide I:21-II:C) [AF35149] |  | 2 nM | 0.057 nM | 
I: GGLYACHMGPITWVCQPLRGK-NH2 / II: GGLYACHMGPITWVCQPLRG (disulfide I:6-I:15, II:6-II:15; amide I:21-II:C) [AF32579] |  | 3 nM | 0.142 nM | 1.7 nM
I: GGLYACHMGPIT[1Nal]VCQPLR[Sar]K-NH2 / II: GGLYACHMGPIT[1Nal]VCQPLR[Sar] (disulfide I:6-I:15, II:6-II:15; amide I:21-II:C) [AF34994] |  | 3.7 nM | 0.17 nM | 
I: GGLYACH[hSer](Me)GPITWVCQPLR[Sar]K-NH2 / II: GGLYACH[hSer](Me)GPITWVCQPLR[Sar] (disulfide I:6-I:15, II:6-II:15; amide I:21-II:C) [AF35090] |  | 3.7 nM | 0.19 nM | 
I: GGLYACH[hSer](Me)GPIT[1Nal]VCQPLRGK-NH2 / II: GGLYACH[hSer](Me)GPIT[1Nal]VCQPLRG (disulfide I:6-I:15, II:6-II:15; amide I:21-II:C) [AF32881] |  | 11 nM |  | 
